Data on 22 compounds can be found in patent US7319109B2, “Farnesoid X receptor agonists” (Smith Kline Beecham Corporation, priority 2002, dated 2008).

The assay concerns the target T1, Human FXRα Ligand Binding Domain (FXRα LBD) (Homo sapiens, UniProt Q96RI1).
T1 construct: polyhistidine (N); made in house; host or cells: E. coli BL21 (DE3), pRSET-A vector
T1 sequence (Q96RI1 222-472 isoform Q96RI1-2): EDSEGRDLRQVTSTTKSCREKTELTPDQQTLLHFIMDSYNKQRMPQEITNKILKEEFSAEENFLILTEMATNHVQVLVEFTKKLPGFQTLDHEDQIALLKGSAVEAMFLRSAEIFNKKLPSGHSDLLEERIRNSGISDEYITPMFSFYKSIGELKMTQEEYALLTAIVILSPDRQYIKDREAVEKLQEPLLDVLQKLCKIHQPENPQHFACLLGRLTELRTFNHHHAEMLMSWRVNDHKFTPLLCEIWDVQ
Briefly: FXR Affinity Binding Assay: ligand mediated cofactor peptide (SRC-1 LCD2, 676-700) interaction, time resolved fluorescence. The settings on record: FXRα LBD-APC / europium labeled SRC-1 peptide, TRF signal, at least 2 hours at room temperature; read-out: Activity (pEC50) (converted). As for the experimental part: Determination of a ligand mediated cofactor peptide interaction to quantify ligand binding to the nuclear receptor Farnasoid X Receptor (FXR). The method measures the ability of putative ligands to modulate the interaction between the purified bacterial expressed FXRα (LBD) and a synthetic biotinylated peptide based on residues 676-700 of SRC-1(LCD2, 676-700). […] Detection of the associated complex is measured by time resolved fluorescence (TRF). The purified LBD of FXR is labeled with biotin then mixed with stoichiometric amounts of APC labeled streptavidin (Molecular Probes). The biotinylated peptide is then mixed with a ½ stoichiometric amount of europium labeled streptavidin (Wallac Inc). Each is then blocked with a 5 fold excess of biotin and allowed to equilibrate for 15 min. Equimolar amounts of receptor and peptide are mixed together and allowed to equilibrate for at least 30 min prior to the addition to either a variable or constant concentrations of the sample for which the affinity is to be determined. After equilibration, the time-resolved fluorescent signal is quantitated using a fluorescent plate reader. The affinity of the test compound is estimated from a plot of fluorescence versus concentration of test compound added.
Ligands that promote the complex formation induce a concentration-dependent increase in time-resolved fluorescent signal.
Human FXRα Ligand Binding Domain (FXRα LBD) was expressed in E.coli strain BL21 (DE3) as an amino-terminal polyhistidine tagged fusion protein. Expression was under the control of an IPTG inducible T7 promoter. DNA encoding this recombinant protein was subcloned into the pRSET-A expression vector (Invitrogen). The coding sequence of Human FXRα LBD was derived from Genbank accession number U 68233 (amino acids 222 to 472).
Routinely, 30-40 g cell paste (equivalent to 2-3 liters of the fermentation batch) was resuspended in 200-250 mL TBS, pH 7.2 (25mM Tris, 150 mM NaCl). Cells were lysed by passing 3 times through a French Press and cell debris was removed by centrifugation (30 minutes, 20,000 g, 4° C.). The cleared supernatant was filtered through course pre-filters, and TBS, pH 7.2, containing 500 mM imidazole was added to obtain a final imidazole concentration of 50 mM. This lysate was loaded onto a column (6×8 cm) packed with Sepharose [Ni^++ charged]Chelation resin (Pharmacia) and pre-equilibrated with TBS pH 7.21 50 mM imidazole. After washing to baseline absorbance with equilibration buffer, the column was washed with one column volume of TBS pH 7.2 containing 90 mM imidazole. FXRαLBD was eluted directly with 365 mM imidazole. Column fractions were pooled and dialyzed against TBS, pH 7.2, containing 0.5 mM EDTA and 5 mM DTT. The dialyzed protein sample was concentrated using Centri-prep 10 K (Amicon) and subjected to size exclusion, using a column (3×90 cm) packed with Sepharose S-75 resin (Pharmacia) pre-equilibrated with TBS, pH 7.2, containing 0.5 mM EDTA and 5 mM DTT.
Purified FXRα LBD was desalted/buffer exchanged using PD-10 gel filtration columns into PBS [100 mM NaPhosphate, pH 7.2, 150 mM NaCl]. FXRα LBD was diluted to approximately 10 μM in PBS and five-fold molar excess of NHS-LC-Biotin (Pierce) was added in a minimal volume of PBS. This solution was incubated with gentle mixing for 30 minutes at room temperature. The biotinylation modification reaction was stopped by the addition of 2000× molar excess of Tris-HCl, pH 8. The modified FXRα LBD was dialyzed against 4 buffer changes, each of at least 50 volumes, PBS containing 5 mM DTT, 2 mM EDTA and 2% sucrose.

For the compound `COC(=O)c1cccc(C(=O)Nc2ccc(OCc3c(-c4c(Cl)cccc4Cl)noc3C(C)C)cc2Cl)c1` [Example 24, Methyl 3-[(2-chloro-4-{[3-(2,6-dichlorophenyl)-5-isopropyl-4-isoxazolyl]methoxy}anilino)carbonyl]benzoate], the EC50 is 102 to 1000 nM.

For the compound `COC(=O)c1ccc(C(=O)Nc2ccc(OCc3c(-c4c(Cl)cccc4Cl)noc3C(C)C)cc2Cl)cc1` [Example 25, Methyl 4-[(2-chloro-4-{[3-(2,6-dichlorophenyl)-5-isopropyl-4-isoxazolyl]methoxy}anilino)carbonyl]benzoate], the EC50 is 102 to 1000 nM.

As to `Cc1cc(OCc2c(-c3c(Cl)cccc3Cl)noc2C(C)C)ccc1NC(=O)c1cccc(C(=O)O)c1` [Example 26, 3-[(4-{[3-(2,6-Dichlorophenyl)-5-isopropyl-4-isoxazolyl]methoxy}-2-methylanilino)carbonyl]benzoic acid], the EC50 was 1020 to 10000 nM.

With `Cc1cc(OCc2c(-c3c(Cl)cccc3Cl)noc2C(C)C)ccc1NC(=O)c1ccc(C(=O)O)cc1` [Example 27, 4-[(4-{[3-(2,6-Dichlorophenyl)-5-isopropyl-4-isoxazolyl]methoxy}-2-methylanilino)carbonyl]benzoic acid], the EC50 is 102 to 1000 nM.

For `CC(C)c1onc(-c2c(Cl)cccc2Cl)c1COc1ccc(NC(=O)c2cccc(C(=O)O)c2)c(Cl)c1` [Example 28, 3-[(2-Chloro-4-{[3-(2,6-dichlorophenyl)-5-isopropyl-4-isoxazolyl]methoxy}anilino)carbonyl]benzoic acid], the EC50 is 102 to 1000 nM.

Regarding `Cc1cc(OCc2c(-c3c(Cl)cccc3Cl)noc2C(C)C)ccc1N(C)C(=O)c1cccc(C(=O)O)c1` [Example 29, 3-[(4-{[3-(2,6-Dichlorophenyl)-5-isopropyl-4-isoxazolyl]methoxy}-2-dimethylanilino)carbonyl]benzoic acid], the EC50 is 102 to 1000 nM.

For the compound `CC(C)c1onc(-c2c(Cl)cccc2Cl)c1COc1ccc(N(C)C(=O)c2cccc(C(=O)O)c2)c(Cl)c1` [Example 30, 3-[(2-Chloro-4-{[3-(2,6-dichlorophenyl)-5-isopropyl-4-isoxazolyl]methoxy}methylanilino)carbonyl]benzoic acid], the EC50 is 102 to 1000 nM.

Turning to `CC(C)c1onc(-c2c(Cl)cccc2Cl)c1COc1ccc(N(C)C(=O)c2ccc(C(=O)O)cc2)c(Cl)c1` [Example 31, 4-[(2-Chloro-4-{[3-(2,6-dichlorophenyl)-5-isopropyl-4-isoxazolyl]methoxy}methylanilino)carbonyl]benzoic acid], the EC50 was 102 to 1000 nM.

As to `Cc1cc(OCc2c(-c3ccccc3OC(F)(F)F)noc2C(C)C)ccc1N(C)C(=O)c1cccc(C(=O)O)c1` [Example 32, 3-{[4-({5-Isopropyl-3-[2-(trifluoromethoxy)phenyl]-4-isoxazolyl}methoxy)-2-dimethylanilino]carbonyl}benzoic acid], the EC50 was 102 to 1000 nM.

For `Cc1cc(OCc2c(-c3ccccc3OC(F)(F)F)noc2C(C)C)ccc1NC(=O)c1cccc(C(=O)O)c1` [Example 33, 3-{[4-({5-Isopropyl-3-[2-(trifluoromethoxy)phenyl]-4-isoxazolyl}methoxy)-2-methylanilino]carbonyl}benzoic acid], the EC50 is 102 to 1000 nM.

For the compound `CC(C)c1onc(-c2ccccc2OC(F)(F)F)c1COc1ccc(N(C)C(=O)c2cccc(C(=O)O)c2)c(Cl)c1` [Example 34, 3-{[2-Chloro-4-({5-isopropyl-3-[2-(trifluoromethoxy)phenyl]-4-isoxazolyl}methoxy)methylanilino]carbonyl}benzoic acid], the EC50 was 102 to 1000 nM.

`COC(=O)c1cccc(S(=O)(=O)N(C)c2ccc(OCc3c(-c4c(Cl)cccc4Cl)noc3C(C)C)cc2C)c1` [Example 35, Methyl 3-{[(4-{[3-(2,6-dichlorophenyl)-5-isopropylisoxazol-4-yl]methoxy}-2-methylphenyl)(methyl)amino]sulfonyl}benzoate]: the EC50 is 102 to 1000 nM.

Turning to `COC(=O)c1cccc(S(=O)(=O)Nc2ccc(OCc3c(-c4c(Cl)cccc4Cl)noc3C(C)C)cc2Cl)c1` [Example 36, Methyl 3-{[(2-chloro-4-{[3-(2,6-dichlorophenyl)-5-isopropylisoxazol-4-yl]methoxy}-phenyl)amino]sulfonyl}benzoate], the EC50 was 102 to 1000 nM.

With `COC(=O)c1cccc(S(=O)(=O)Nc2ccc(OCc3c(-c4c(Cl)cccc4Cl)noc3C(C)C)cc2C)c1` [Example 37, Methyl 3-{[1(4-{[3-(2,6-dichlorophenyl)-5-isopropylisoxazol-4-yl]methoxy}-2-methylphenyl)amino]sulfonyl}benzoate], the EC50 was 102 to 1000 nM.

Take `COC(=O)c1cccc(S(=O)(=O)Nc2ccc(OCc3c(-c4c(Cl)cccc4Cl)noc3C(C)C)cc2)c1` [Example 38, Methyl 3-{[(4-{[3-(2,6-dichlorophenyl)-5-isopropylisoxazol-4yl]methoxy}phenyl)amino]-sulfonyl}benzoate]: the EC50 was 102 to 1000 nM.

Take `Cc1cc(OCc2c(-c3c(Cl)cccc3Cl)noc2C(C)C)ccc1NS(=O)(=O)c1cccc(C(=O)O)c1` [Example 39, 3-{[(4-{[3-(2,6-Dichlorophenyl)-5-isopropylisoxazol-4-yl]methoxy}-2-methylphenyl)-amino]sulfonyl}benzoic acid]: the EC50 was 102 to 1000 nM.

With `CC(C)c1onc(-c2c(Cl)cccc2Cl)c1COc1ccc(NS(=O)(=O)c2cccc(C(=O)O)c2)cc1` [Example 40, 3-{[(4-{[3-(2,6-Dichlorophenyl)-5-isopropylisoxazol-4-yl]methoxy}phenyl)amino]-sulfonyl}benzoic acid], the EC50 was 1020 to 10000 nM.

Take `COC(=O)c1cccc(S(=O)(=O)N(C)c2ccc(OCc3c(-c4c(Cl)cccc4Cl)noc3C(C)C)cc2Cl)c1` [Example 41, Methyl 3-{[(2-chloro-4-{[3-(2,6-dichlorophenyl)-5-isopropylisoxazol-4-yl]methoxy}-phenyl)(methyl)amino]sulfonyl}benzoate]: the EC50 is 102 to 1000 nM.

On to `COC(=O)c1cccc(S(=O)(=O)N(C)c2ccc(OCc3c(-c4c(Cl)cccc4Cl)noc3C(C)C)cc2)c1` [Example 42, Methyl 3-{[(4-{[3-(2,6-dichlorophenyl)-5-isopropylisoxazol-4-yl]methoxy}phenyl)-(methyl)amino]sulfonyl}benzoate], for which the EC50 is 102 to 1000 nM.

As for `CCN(c1ccc(OCc2c(-c3c(Cl)cccc3Cl)noc2C(C)C)cc1Cl)S(=O)(=O)c1cccc(C(=O)OC)c1` [Example 43, Methyl 3-{[(2-chloro-4-{[3-(2,6-dichlorophenyl)-5-isopropylisoxazol-4-yl]methoxy}-phenyl)(ethyl)amino]sulfonyl}benzoate], the EC50 was 1020 to 10000 nM.

In the case of `CCN(c1ccc(OCc2c(-c3c(Cl)cccc3Cl)noc2C(C)C)cc1C)S(=O)(=O)c1cccc(C(=O)OC)c1` [Example 44, Methyl 3-{[(4-{[3-(2,6-dichlorophenyl)-5-isopropylisoxazol-4-yl]methoxy}-2-methyl-phenyl)(ethyl)amino]sulfonyl}benzoate], the EC50 is 102 to 1000 nM.

In the case of `CCN(c1ccc(OCc2c(-c3c(Cl)cccc3Cl)noc2C(C)C)cc1)S(=O)(=O)c1cccc(C(=O)OC)c1` [Example 45, Methyl 3-{[(4-{[3-(2,6-dichlorophenyl)-5-isopropylisoxazol-4-yl]methoxy}phenyl)(ethyl)-amino]sulfonyl}benzoate], the EC50 was 1020 to 10000 nM.
